Measured values: article PMC4774911, “Biochemical Screening of Five Protein Kinases from Plasmodium falciparum against 14,000 Cell-Active Compounds” (PLoS ONE, 2016)
Values joined by “and” are separate entries in the source; they are usually repeats but may differ in a detail not shown here. Equal values may be shown once.

Legend:
Assay in all cases: biochemical
[1] = target: PRKAA1 (Homo sapiens, UniProt Q13131)
[2] = target: STK3 (Homo sapiens, UniProt Q13188)
[3] = target: MAPK6 (Homo sapiens, UniProt Q16659)
Chain of MAPK6 (Q16659 whole entry): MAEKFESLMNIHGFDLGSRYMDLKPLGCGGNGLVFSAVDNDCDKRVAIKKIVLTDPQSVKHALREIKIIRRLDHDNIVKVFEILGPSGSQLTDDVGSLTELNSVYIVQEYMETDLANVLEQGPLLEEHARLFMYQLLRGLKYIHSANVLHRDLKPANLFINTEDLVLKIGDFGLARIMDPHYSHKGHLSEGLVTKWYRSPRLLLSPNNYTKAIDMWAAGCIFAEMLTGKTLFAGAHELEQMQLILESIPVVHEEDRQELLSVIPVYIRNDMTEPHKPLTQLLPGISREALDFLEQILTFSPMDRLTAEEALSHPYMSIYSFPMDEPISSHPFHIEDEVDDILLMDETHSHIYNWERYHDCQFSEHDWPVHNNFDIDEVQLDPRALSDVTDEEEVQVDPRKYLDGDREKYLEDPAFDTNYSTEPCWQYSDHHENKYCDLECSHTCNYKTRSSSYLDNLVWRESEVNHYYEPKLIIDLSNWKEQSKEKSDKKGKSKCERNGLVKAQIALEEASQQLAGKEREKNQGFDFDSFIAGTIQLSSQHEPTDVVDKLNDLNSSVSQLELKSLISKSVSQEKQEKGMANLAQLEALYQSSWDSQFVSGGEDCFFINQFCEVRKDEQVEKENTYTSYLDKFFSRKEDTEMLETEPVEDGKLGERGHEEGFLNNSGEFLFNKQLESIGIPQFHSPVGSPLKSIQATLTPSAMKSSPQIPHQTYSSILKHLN

[4] = target: T1, TAOK3 (Homo sapiens, UniProt Q9H2K8)
T1 sequence (Q9H2K8 1-898): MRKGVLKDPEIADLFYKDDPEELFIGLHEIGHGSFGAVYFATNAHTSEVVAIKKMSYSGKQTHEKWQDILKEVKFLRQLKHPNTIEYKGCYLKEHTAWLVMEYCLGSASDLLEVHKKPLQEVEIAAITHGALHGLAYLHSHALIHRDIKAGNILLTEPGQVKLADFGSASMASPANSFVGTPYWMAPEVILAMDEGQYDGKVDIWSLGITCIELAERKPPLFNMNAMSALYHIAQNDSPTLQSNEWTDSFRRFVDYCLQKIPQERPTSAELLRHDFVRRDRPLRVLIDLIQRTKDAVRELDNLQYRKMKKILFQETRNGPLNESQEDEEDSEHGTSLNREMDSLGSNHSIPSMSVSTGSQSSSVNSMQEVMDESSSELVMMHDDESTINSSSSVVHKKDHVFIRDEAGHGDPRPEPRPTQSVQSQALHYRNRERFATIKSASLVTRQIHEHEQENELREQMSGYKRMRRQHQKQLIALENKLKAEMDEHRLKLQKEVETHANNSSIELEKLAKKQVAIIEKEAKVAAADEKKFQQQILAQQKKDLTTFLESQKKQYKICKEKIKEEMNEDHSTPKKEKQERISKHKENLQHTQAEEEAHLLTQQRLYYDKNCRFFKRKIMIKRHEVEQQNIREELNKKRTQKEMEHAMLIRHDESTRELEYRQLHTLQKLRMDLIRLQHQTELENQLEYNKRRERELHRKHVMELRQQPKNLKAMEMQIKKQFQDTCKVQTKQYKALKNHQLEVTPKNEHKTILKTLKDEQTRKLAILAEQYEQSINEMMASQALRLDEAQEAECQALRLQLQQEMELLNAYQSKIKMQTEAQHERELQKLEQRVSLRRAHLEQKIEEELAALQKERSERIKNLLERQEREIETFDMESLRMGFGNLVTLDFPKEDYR

[5] = target: CDK10 (Homo sapiens, UniProt Q15131)
Chain of CDK10 (Q15131 whole entry): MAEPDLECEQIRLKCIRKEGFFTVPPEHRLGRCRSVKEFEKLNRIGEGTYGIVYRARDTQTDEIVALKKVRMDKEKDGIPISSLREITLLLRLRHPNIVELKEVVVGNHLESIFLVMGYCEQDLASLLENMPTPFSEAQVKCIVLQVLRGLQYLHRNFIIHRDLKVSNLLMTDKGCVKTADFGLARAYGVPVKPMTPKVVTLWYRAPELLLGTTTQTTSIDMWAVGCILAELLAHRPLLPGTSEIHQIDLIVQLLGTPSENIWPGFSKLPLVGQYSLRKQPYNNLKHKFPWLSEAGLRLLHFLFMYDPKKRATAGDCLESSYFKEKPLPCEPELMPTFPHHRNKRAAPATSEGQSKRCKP

[6] = target: T2, STK4 (Homo sapiens, UniProt Q13043)
T2 sequence (Q13043 1-487): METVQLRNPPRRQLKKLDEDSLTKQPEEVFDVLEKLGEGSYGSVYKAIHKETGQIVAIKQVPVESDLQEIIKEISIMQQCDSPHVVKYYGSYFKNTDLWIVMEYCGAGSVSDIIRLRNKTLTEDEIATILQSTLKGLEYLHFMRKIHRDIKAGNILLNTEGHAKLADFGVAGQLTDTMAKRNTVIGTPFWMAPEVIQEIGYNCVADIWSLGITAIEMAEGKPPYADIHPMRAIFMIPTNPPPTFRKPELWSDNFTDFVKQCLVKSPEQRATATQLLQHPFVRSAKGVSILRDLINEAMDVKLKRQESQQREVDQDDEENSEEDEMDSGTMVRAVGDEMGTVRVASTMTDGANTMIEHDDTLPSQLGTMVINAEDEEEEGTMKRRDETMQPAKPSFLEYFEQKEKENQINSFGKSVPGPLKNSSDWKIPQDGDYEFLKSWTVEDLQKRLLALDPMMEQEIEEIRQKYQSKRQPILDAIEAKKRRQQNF

[7] = target: RPS6KA1 (Homo sapiens, UniProt Q15418)
Chain of RPS6KA1 (Q15418 whole entry): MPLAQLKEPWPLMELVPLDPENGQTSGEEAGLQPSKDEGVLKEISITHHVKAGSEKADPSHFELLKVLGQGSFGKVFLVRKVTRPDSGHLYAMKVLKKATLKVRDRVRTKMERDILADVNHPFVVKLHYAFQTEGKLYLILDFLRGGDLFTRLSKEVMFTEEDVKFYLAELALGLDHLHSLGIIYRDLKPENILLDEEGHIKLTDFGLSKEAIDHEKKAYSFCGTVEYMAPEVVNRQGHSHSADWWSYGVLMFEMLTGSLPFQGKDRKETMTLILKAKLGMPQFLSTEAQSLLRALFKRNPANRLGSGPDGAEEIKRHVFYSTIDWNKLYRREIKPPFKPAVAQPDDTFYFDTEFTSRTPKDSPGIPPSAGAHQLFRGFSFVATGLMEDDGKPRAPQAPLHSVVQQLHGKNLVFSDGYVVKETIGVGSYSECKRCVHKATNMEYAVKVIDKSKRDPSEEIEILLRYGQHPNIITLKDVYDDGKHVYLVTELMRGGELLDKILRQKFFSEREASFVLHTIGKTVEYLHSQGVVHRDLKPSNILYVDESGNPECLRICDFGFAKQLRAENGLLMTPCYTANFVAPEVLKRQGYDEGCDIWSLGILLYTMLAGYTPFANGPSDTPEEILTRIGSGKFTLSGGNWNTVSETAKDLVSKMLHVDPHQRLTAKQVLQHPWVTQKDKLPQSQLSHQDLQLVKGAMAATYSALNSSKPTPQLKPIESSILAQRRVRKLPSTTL

[8] = target: MAPK7 (Homo sapiens, UniProt Q13164)
Chain of MAPK7 (Q13164 whole entry): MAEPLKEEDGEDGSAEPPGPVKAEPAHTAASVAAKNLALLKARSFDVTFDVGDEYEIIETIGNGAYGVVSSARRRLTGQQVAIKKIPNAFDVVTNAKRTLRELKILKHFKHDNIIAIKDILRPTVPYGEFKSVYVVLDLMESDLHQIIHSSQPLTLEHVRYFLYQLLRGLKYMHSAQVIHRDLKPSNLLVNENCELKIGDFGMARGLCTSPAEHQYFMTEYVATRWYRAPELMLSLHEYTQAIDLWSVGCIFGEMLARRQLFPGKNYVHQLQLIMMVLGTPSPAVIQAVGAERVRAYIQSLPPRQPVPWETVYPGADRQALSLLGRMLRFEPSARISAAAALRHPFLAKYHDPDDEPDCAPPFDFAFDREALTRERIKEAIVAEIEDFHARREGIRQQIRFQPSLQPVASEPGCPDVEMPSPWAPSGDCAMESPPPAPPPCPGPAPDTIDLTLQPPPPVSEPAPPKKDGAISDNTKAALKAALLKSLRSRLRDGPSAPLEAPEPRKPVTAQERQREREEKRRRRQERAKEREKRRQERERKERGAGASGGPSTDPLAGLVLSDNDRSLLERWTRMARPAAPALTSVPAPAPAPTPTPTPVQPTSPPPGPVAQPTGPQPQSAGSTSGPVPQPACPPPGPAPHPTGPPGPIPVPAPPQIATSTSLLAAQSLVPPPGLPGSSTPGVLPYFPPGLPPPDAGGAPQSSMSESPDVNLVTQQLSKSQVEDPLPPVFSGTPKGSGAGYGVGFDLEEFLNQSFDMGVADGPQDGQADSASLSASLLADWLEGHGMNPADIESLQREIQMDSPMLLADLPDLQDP

[9] = target: T3, ULK1 (Homo sapiens, UniProt O75385)
T3 sequence (O75385 1-1050): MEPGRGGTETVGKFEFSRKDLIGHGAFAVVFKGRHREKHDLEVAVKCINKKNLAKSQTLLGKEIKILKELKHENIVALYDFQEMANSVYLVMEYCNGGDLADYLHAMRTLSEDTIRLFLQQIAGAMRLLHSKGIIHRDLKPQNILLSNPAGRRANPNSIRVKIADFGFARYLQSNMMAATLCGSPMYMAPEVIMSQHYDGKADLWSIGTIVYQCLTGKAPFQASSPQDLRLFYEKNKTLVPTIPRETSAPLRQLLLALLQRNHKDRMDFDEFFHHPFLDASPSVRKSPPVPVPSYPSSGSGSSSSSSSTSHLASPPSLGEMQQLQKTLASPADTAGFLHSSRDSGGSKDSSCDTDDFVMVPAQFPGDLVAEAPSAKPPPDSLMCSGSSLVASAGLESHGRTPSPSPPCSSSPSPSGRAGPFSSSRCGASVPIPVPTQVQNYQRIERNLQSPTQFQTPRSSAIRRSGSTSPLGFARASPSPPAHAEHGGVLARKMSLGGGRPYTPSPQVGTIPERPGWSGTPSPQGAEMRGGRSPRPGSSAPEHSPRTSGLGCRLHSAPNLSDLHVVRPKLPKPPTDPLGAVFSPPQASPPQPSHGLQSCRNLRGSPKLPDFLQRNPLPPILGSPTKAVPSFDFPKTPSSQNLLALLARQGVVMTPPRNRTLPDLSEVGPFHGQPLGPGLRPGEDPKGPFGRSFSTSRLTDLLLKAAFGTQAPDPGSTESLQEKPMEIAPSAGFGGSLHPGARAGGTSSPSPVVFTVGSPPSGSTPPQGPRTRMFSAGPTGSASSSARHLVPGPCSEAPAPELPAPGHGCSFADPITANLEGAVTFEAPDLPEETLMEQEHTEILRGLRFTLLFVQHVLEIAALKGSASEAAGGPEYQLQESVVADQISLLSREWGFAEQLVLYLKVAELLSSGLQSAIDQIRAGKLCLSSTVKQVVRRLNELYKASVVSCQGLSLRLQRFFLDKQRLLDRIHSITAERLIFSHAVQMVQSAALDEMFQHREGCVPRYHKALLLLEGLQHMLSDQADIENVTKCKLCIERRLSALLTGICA

Chain of PRKAA1 (Q13131 whole entry): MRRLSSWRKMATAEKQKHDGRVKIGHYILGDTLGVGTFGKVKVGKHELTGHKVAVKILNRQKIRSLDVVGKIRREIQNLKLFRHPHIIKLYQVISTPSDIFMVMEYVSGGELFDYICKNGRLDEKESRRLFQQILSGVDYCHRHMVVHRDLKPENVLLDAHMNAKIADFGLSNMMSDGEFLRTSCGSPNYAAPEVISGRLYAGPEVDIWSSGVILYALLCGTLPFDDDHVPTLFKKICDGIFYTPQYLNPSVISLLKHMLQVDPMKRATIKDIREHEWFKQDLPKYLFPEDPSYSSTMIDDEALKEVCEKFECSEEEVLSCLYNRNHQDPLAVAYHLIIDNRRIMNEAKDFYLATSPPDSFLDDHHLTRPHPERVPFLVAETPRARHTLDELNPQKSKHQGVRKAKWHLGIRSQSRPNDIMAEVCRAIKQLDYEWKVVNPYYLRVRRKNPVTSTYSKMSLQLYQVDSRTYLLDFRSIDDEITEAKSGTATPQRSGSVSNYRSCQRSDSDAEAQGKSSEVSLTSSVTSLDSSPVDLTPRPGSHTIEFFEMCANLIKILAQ
Chain of STK3 (Q13188 whole entry): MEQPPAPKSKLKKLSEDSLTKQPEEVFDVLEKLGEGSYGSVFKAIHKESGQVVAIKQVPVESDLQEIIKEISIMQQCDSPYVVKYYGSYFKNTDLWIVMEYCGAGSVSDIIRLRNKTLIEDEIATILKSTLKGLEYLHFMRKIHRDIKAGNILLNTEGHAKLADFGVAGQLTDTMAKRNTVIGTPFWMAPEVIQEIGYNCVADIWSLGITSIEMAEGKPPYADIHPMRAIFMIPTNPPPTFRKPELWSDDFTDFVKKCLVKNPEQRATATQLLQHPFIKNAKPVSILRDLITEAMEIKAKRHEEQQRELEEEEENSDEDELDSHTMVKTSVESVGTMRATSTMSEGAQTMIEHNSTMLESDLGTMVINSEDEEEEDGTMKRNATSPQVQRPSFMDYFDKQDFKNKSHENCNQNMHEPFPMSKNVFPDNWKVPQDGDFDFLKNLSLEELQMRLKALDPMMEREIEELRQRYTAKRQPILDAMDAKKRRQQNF

CN(C)CC(O)COc1ccc(Nc2ncc([N+](=O)[O-])c(Nc3ccccc3O)n2)cc1.O=C(O)C(F)(F)F (stereo not drawn) [TCMDC-141399]
IC50 [1]: 7100 nM and 7700 nM | IC50 [2]: > 20000 nM | IC50 [3]: 320 nM | IC50 [4]: > 20000 nM | IC50 [5]: 1600 nM

Cl.NCC1(c2nc(-c3ccc(Cl)c(O)c3)c(-c3ccncc3)[nH]2)CCCCC1 [TCMDC-141154]
IC50 [6]: > 20000 nM | IC50 [7]: > 20000 nM | IC50 [2]: > 20000 nM | IC50 [8]: 1100 nM and 1900 nM | IC50 [3]: > 20000 nM | IC50 [9]: > 20000 nM | IC50 [4]: 1800 nM and 910 nM | IC50 [5]: > 20000 nM

CN1CCN(c2ccc(Nc3ncc(C#N)c(Nc4ccccc4C(N)=O)n3)cc2)CC1.Cl [TCMDC-134116]
IC50 [6]: 190 nM and 220 nM | IC50 [1]: 38 nM and 49 nM | IC50 [7]: 150 nM | IC50 [8]: 280 nM and 380 nM | IC50 [9]: 160 nM
